Activity calls are given as the source filed them. The rule behind the calls is not given here.
System: CCRIS mutagenicity, Ames/micronucleus/aberration tests
Experiment: CCRIS mutagenicity studies
[1] = Test System: AMES SALMONELLA TYPHIMURIUM, Strain/Indicator: TA100, Metabolic Activation: NONE, Method: STANDARD PLATE
[2] = Test System: AMES SALMONELLA TYPHIMURIUM, Strain/Indicator: TA100, Metabolic Activation: RAT, LIVER, S-9, AROCLOR 1254, Method: STANDARD PLATE
[3] = Test System: AMES SALMONELLA TYPHIMURIUM, Strain/Indicator: TA1535, Metabolic Activation: NONE, Method: STANDARD PLATE
[4] = Test System: AMES SALMONELLA TYPHIMURIUM, Strain/Indicator: TA1535, Metabolic Activation: RAT, LIVER, S-9, AROCLOR 1254, Method: STANDARD PLATE

## CN(C)c1ccc(N(C)C)cc1
End Point: IN VITRO CHROMOSOMAL ABERRATIONS, Test System: CHINESE HAMSTER LUNG CELLS (CHL), Metabolic Activation: NONE
  mutagenic call: active; positive (structural changes)
End Point: IN VITRO CHROMOSOMAL ABERRATIONS, Test System: CHINESE HAMSTER LUNG CELLS (CHL), Metabolic Activation: RAT, LIVER, S-9, KC-400
  mutagenic call: active; positive (structural changes)
End Point: IN VITRO CHROMOSOMAL ABERRATIONS, Test System: CHINESE HAMSTER OVARY CELLS (CHO), Metabolic Activation: NONE
  mutagenic call: active; positive at highest dose
End Point: IN VITRO CHROMOSOMAL ABERRATIONS, Test System: CHINESE HAMSTER OVARY CELLS (CHO), Metabolic Activation: RAT, LIVER, S-9, AROCLOR 1254
  mutagenic call: active; positive (structural changes)
Test System: AMES SALMONELLA TYPHIMURIUM, Strain/Indicator: TA97, Metabolic Activation: HAMSTER, LIVER, S-9, AROCLOR 1254 (10%), Method: PREINCUBATION
  mutagenic call: active; positive
Test System: AMES SALMONELLA TYPHIMURIUM, Strain/Indicator: TA97, Metabolic Activation: RAT, LIVER, S-9, AROCLOR 1254 (10%), Method: PREINCUBATION
  mutagenic call: active; positive
Test System: AMES SALMONELLA TYPHIMURIUM, Strain/Indicator: TA97, Metabolic Activation: RAT, LIVER, S-9, AROCLOR 1254 (30%), Method: PREINCUBATION
  mutagenic call: inactive; negative
Test System: AMES SALMONELLA TYPHIMURIUM, Strain/Indicator: TA98, Metabolic Activation: HAMSTER, LIVER, S-9, AROCLOR 1254 (10%), Method: PREINCUBATION
  mutagenic call: inactive; negative
Test System: AMES SALMONELLA TYPHIMURIUM, Strain/Indicator: TA98, Metabolic Activation: HAMSTER, LIVER, S-9, AROCLOR 1254 (30%), Method: PREINCUBATION
  mutagenic call: active; positive
Test System: AMES SALMONELLA TYPHIMURIUM, Strain/Indicator: TA98, Metabolic Activation: NONE, Method: PREINCUBATION
  mutagenic call: inactive; negative
Test System: AMES SALMONELLA TYPHIMURIUM, Strain/Indicator: TA98, Metabolic Activation: RAT, LIVER, S-9, AROCLOR 1254 (10%), Method: PREINCUBATION
  mutagenic call: inactive; negative
Test System: AMES SALMONELLA TYPHIMURIUM, Strain/Indicator: TA98, Metabolic Activation: RAT, LIVER, S-9, AROCLOR 1254 (30%), Method: PREINCUBATION
  mutagenic call: inactive; negative
Test System: AMES SALMONELLA TYPHIMURIUM, Strain/Indicator: TA100, Metabolic Activation: HAMSTER, LIVER, S-9, AROCLOR 1254 (10%), Method: PREINCUBATION
  mutagenic call: active; positive
Test System: AMES SALMONELLA TYPHIMURIUM, Strain/Indicator: TA100, Metabolic Activation: HAMSTER, LIVER, S-9, AROCLOR 1254 (30%), Method: PREINCUBATION
  mutagenic call: active; positive
Test System: AMES SALMONELLA TYPHIMURIUM, Strain/Indicator: TA100, Metabolic Activation: RAT, LIVER, S-9, AROCLOR 1254 (10%), Method: PREINCUBATION
  mutagenic call: active; positive
Test System: AMES SALMONELLA TYPHIMURIUM, Strain/Indicator: TA100, Metabolic Activation: RAT, LIVER, S-9, AROCLOR 1254 (30%), Method: PREINCUBATION
  mutagenic call: active; positive
Test System: AMES SALMONELLA TYPHIMURIUM, Strain/Indicator: TA1535, Metabolic Activation: HAMSTER, LIVER, S-9, AROCLOR 1254 (10%), Method: PREINCUBATION
  mutagenic call: inactive; negative
Test System: AMES SALMONELLA TYPHIMURIUM, Strain/Indicator: TA1535, Metabolic Activation: HAMSTER, LIVER, S-9, AROCLOR 1254 (30%), Method: PREINCUBATION
  mutagenic call: inactive; negative
Test System: AMES SALMONELLA TYPHIMURIUM, Strain/Indicator: TA1535, Metabolic Activation: NONE, Method: PREINCUBATION
  mutagenic call: inactive; negative
Test System: AMES SALMONELLA TYPHIMURIUM, Strain/Indicator: TA1535, Metabolic Activation: RAT, LIVER, S-9, AROCLOR 1254 (10%), Method: PREINCUBATION
  mutagenic call: inactive; negative
Test System: AMES SALMONELLA TYPHIMURIUM, Strain/Indicator: TA1535, Metabolic Activation: RAT, LIVER, S-9, AROCLOR 1254 (30%), Method: PREINCUBATION
  mutagenic call: inactive; negative

## C1=C/CCC2OC2CC/C=C/CC/1 (configuration not stated)
[1]
  mutagenic call: inactive; negative
[2]
  mutagenic call: inactive; negative
[3]
  mutagenic call: inactive; negative
[4]
  mutagenic call: inactive; negative

## CC(C)Cc1ccc(C(C)C(=O)O)cc1 (configuration not stated)
Test System: AMES SALMONELLA TYPHIMURIUM, Strain/Indicator: TA97A, Metabolic Activation: NONE, Method: STANDARD PLATE
  mutagenic call: inactive; negative
Test System: AMES SALMONELLA TYPHIMURIUM, Strain/Indicator: TA97A, Metabolic Activation: RAT, LIVER, S-9, PHENOBARBITAL, Method: STANDARD PLATE
  mutagenic call: inactive; negative
Test System: AMES SALMONELLA TYPHIMURIUM, Strain/Indicator: TA98, Metabolic Activation: HAMSTER, LIVER, S-9, AROCLOR 1254, Method: STANDARD PLATE
  mutagenic call: inactive; negative
Test System: AMES SALMONELLA TYPHIMURIUM, Strain/Indicator: TA98, Metabolic Activation: MOUSE, LIVER, S-9, AROCLOR 1254, Method: STANDARD PLATE
  mutagenic call: inactive; negative
Test System: AMES SALMONELLA TYPHIMURIUM, Strain/Indicator: TA98, Metabolic Activation: NONE, Method: STANDARD PLATE
  mutagenic call: inactive; negative
Test System: AMES SALMONELLA TYPHIMURIUM, Strain/Indicator: TA98, Metabolic Activation: RAT, LIVER, S-9, AROCLOR 1254, Method: STANDARD PLATE
  mutagenic call: inactive; negative
Test System: AMES SALMONELLA TYPHIMURIUM, Strain/Indicator: TA100, Metabolic Activation: HAMSTER, LIVER, S-9, AROCLOR 1254, Method: STANDARD PLATE
  mutagenic call: inactive; negative
Test System: AMES SALMONELLA TYPHIMURIUM, Strain/Indicator: TA100, Metabolic Activation: MOUSE, LIVER, S-9, AROCLOR 1254, Method: STANDARD PLATE
  mutagenic call: inactive; negative
[1]
  mutagenic call: inactive; negative
[2]
  mutagenic call: inactive; negative
Test System: AMES SALMONELLA TYPHIMURIUM, Strain/Indicator: TA100, Metabolic Activation: RAT, LIVER, S-9, PHENOBARBITAL, Method: STANDARD PLATE
  mutagenic call: inactive; negative
Test System: AMES SALMONELLA TYPHIMURIUM, Strain/Indicator: TA102, Metabolic Activation: NONE, Method: STANDARD PLATE
  mutagenic call: inactive; negative
Test System: AMES SALMONELLA TYPHIMURIUM, Strain/Indicator: TA102, Metabolic Activation: RAT, LIVER, S-9, PHENOBARBITAL, Method: STANDARD PLATE
  mutagenic call: inactive; negative
Test System: AMES SALMONELLA TYPHIMURIUM, Strain/Indicator: TA1535, Metabolic Activation: HAMSTER, LIVER, S-9, AROCLOR 1254, Method: STANDARD PLATE
  mutagenic call: inactive; negative
Test System: AMES SALMONELLA TYPHIMURIUM, Strain/Indicator: TA1535, Metabolic Activation: MOUSE, LIVER, S-9, AROCLOR 1254, Method: STANDARD PLATE
  mutagenic call: inactive; negative
[3]
  mutagenic call: inactive; negative
[4]
  mutagenic call: inactive; negative
Test System: AMES SALMONELLA TYPHIMURIUM, Strain/Indicator: TA1537, Metabolic Activation: HAMSTER, LIVER, S-9, AROCLOR 1254, Method: STANDARD PLATE
  mutagenic call: inactive; negative
Test System: AMES SALMONELLA TYPHIMURIUM, Strain/Indicator: TA1537, Metabolic Activation: MOUSE, LIVER, S-9, AROCLOR 1254, Method: STANDARD PLATE
  mutagenic call: inactive; negative
Test System: AMES SALMONELLA TYPHIMURIUM, Strain/Indicator: TA1537, Metabolic Activation: NONE, Method: STANDARD PLATE
  mutagenic call: inactive; negative
Test System: AMES SALMONELLA TYPHIMURIUM, Strain/Indicator: TA1537, Metabolic Activation: RAT, LIVER, S-9, AROCLOR 1254, Method: STANDARD PLATE
  mutagenic call: inactive; negative
Test System: AMES SALMONELLA TYPHIMURIUM, Strain/Indicator: TA1538, Metabolic Activation: HAMSTER, LIVER, S-9, AROCLOR 1254, Method: STANDARD PLATE
  mutagenic call: inactive; negative
Test System: AMES SALMONELLA TYPHIMURIUM, Strain/Indicator: TA1538, Metabolic Activation: MOUSE, LIVER, S-9, AROCLOR 1254, Method: STANDARD PLATE
  mutagenic call: inactive; negative
Test System: AMES SALMONELLA TYPHIMURIUM, Strain/Indicator: TA1538, Metabolic Activation: NONE, Method: STANDARD PLATE
  mutagenic call: inactive; negative
Test System: AMES SALMONELLA TYPHIMURIUM, Strain/Indicator: TA1538, Metabolic Activation: RAT, LIVER, S-9, AROCLOR 1254, Method: STANDARD PLATE
  mutagenic call: inactive; negative

## Clc1cnc2ccccc2c1
Test System: AMES SALMONELLA TYPHIMURIUM, Strain/Indicator: TA100, Metabolic Activation: RAT, LIVER, S-9, PHENOBARBITAL AND 5,6-BENZOFLAVONE, Method: PREINCUBATION
  mutagenic call: inactive; negative

## OCc1ccc(-c2nccc3c2[nH]c2ccccc23)o1
Test System: AMES SALMONELLA TYPHIMURIUM, Strain/Indicator: TA100, Metabolic Activation: NONE, Method: PREINCUBATION
  mutagenic call: active; positive

Source: PubChem BioAssay AID1259407 (Chemical Carcinogenesis Research Information System (CCRIS), 2018)
